pIC50: −log10 of the molar value. Structures can show the parent of a compound that is named as a salt. Where two headings read alike, the source gives them in different places.
Tests used:
[1] = tested on: STIB 900 strain of Trypanosoma brucei rhodesiense (T. b. r.); assay: In vivo T. b. r. STIB 900 mouse model; details: for In Vivo T.b.r. cures: mice cured / mice infected, days 3-6 post-infection; for In Vivo T.b.r. survival time: observation up to day 60
Experimental: Groups of four mice were infected intraperitoneally with 2×10^5 bloodstream forms of T. b. r. STIB 900 which originates from a patient in Tanzania. On days 3, 4, 5, and 6 post-infection the experimental groups were treated with the drugs either by the intraperitoneal or for prodrugs by the oral route. Usually the highest tolerated dose was used which was determined in a pretoxicological experiment. Parasitemia of the mice was checked daily up to day 14 post-infection and thereafter 2 times per week up to day 60. One group of mice was not treated and acted as control. For relapsing mice, the day of death was recorded and the survival time determined.

[2] = tested on: Plasmodium falciparum (P. f.); assay: In vitro antiprotozoal activity against P. f.; type: cell-based; details: read-out: P.f. (IC50)
Experimental: (§1) In vitro antiprotozoal activities were measured following established protocols. […] E., et al., Bioorg.

[3] = tested on: telomeric G-quadruplex DNA sequence d[AG3(T2AG3)3] (SEQ ID NO: 1); assay: CD titration of compounds into human telomeric G-quadruplex DNA (induced CD); type: binding; set-up: key to Induced CD (no exciton): ++: Relative strength of the induced CD is indicated by the number of (+) marks; +++: Relative strength of the induced CD is indicated by the number of (+) marks; ++++: Relative strength of the induced CD is indicated by the number of (+) marks; details: for Induced CD (exciton) / Induced CD (no exciton): G-Quadruplex Affinity
Excerpt: The oligonucleotides d[AG3(T2AG3)3] (SEQ ID NO: 1), d[AG3TG4AG3TG4A] (SEQ ID NO: 2), d[G4(T4G4)3] (SEQ ID NO: 3), d[(T2G4)4] (SEQ ID NO: 4), d[(GC)7] (SEQ ID NO: 5), d[[…]] (SEQ ID NO: 6), d[G2T2G2TGTG2T2G2] (SEQ ID NO: 7), d[[…]] (SEQ ID NO: 8), d[[…]] (SEQ ID NO: 9), d[[…]] (SEQ ID NO: 10), d[[…]] (SEQ ID NO: 11), d[TTAGGGT] (SEQ ID NO: 12), and d[TGGGGT] (SEQ ID NO: 13) were purchased with HPLC purification from Midland Certified Reagent Company (The Midland Certified Reagent Company, Inc., Midland, Tex., USA). The concentration of each DNA sample was determined spectrophotometrically at 260 nm using the nearest neighbor extinction coefficient.
Stock solutions of individual dicationic polyaryl compounds were prepared in double distilled water and diluted to working concentrations immediately before use with buffer. All measurements were performed at 20° C. in a 10 mM HEPES buffer (pH 7.4) containing 3 mM EDTA and 50 mM KCl, NaCl, or LiCl. Absorbance spectra were obtained on a Varian Cary 300 BIO UV-visible spectrophotometer (Varian, Inc., Palo Alto, Calif., United States of America) in a quartz cell with a 1 cm pathlength. CD spectra were recorded using a Jasco J-810 spectrapolarimeter (Jasco, Inc., Easton, Md., United States of America) in a 1-cm cell using an instrument scanning speed of 50 nm/min with a response time of 1 s. The spectra were averaged over four scans. A buffer baseline scan was collected in the same cuvette and subtracted from the average scan for each sample. Appropriate amounts of dicationic compound stock solution or DNA were added sequentially to increase the molar ratio.
When an achiral ligand binds tightly to a chiral host, such as DNA, a CD signal is induced in the wavelength region corresponding to the absorbance of the ligand. […] An additional negative band centered at 395 nm overlaps with the higher energy exciton band. […] Restriction of the rotational and translational freedom of the two molecules of the dimer relative to each other will cause an increase in the rotational strength of the induced CD band, resulting in a large ellipticity. See Allenmark, S., Chirality, 15, 409-422 (2003).
Some compounds appeared to bind to the telomeric G-quadruplex DNA sequence d[AG3(T2AG3)3] […] Relative strength of the induced CD is indicated by the number of (+) marks.

[4] = tested on: Trypanosoma brucei rhodesiense (T. b. r.); assay: In vitro antiprotozoal activity against T. b. r.; type: cell-based
Experimental: as §1

`N=C(N)c1ccc(-c2ccc(-c3ccc(-c4ccc(C(=N)N)cc4)[se]3)[se]2)cc1` gave a melting point greater than 300 °C.
Compound `N=C(N)c1ccnc(-c2ccc(-c3ccc(-c4cc(C(=N)N)ccn4)[se]3)[se]2)c1` has a melting point greater than 300 °C.
With `N=C(N)c1ccc(-c2ccc(-c3ccc(-c4ccc(C(=N)N)cc4)o3)o2)cc1` [Compound 17, 5,5′-bis-(4-Amidinophenyl)-2,2′-bifuran hydrochloride salt] the “In Vivo T.b.r. cures” value ([1]; 10 mg/kg ip) was 0/4, the “In Vivo T.b.r. survival time” value ([1]; 10 mg/kg ip) was 22 days and the pIC50 [2] was 7.70. For the same compound, the “exciton splitting in CD spectra (in words)” value (from here on “exciton splitting”) [3] was “induced exciton splitting” and the “Induced CD (exciton)” value [3] was “++++”.
With `N=C(N)c1ccc(-c2ccc(-c3ccc(-c4ccc(C(=N)N)cn4)o3)o2)nc1` [Compound 22, 5,5′-Bis-(5-amidino-2-pyridyl)-2,2′-bifuran] the melting point was greater than 300 °C.
Work on `N=C(N)c1ccc(-c2ccc(-c3ccc(-c4ccc(C(=N)N)cc4)s3)s2)cc1` [Compound 26a, 5,5′-Bis-(4-amidinophenyl)-2,2′-bithiophene] yielded a melting point greater than 300 °C.
In the case of `N=C(N)c1ccnc(-c2ccc(-c3ccc(-c4cc(C(=N)N)ccn4)s3)s2)c1` [Compound 26b, 5,5′-Bis-(4-amidino-2-pyridyl)-2,2′-bithiophene], the melting point was greater than 300 °C.
In the case of `N=C(N)c1ccc2nc(-c3ccc(-c4ccc(C(=N)N)o4)o3)[nH]c2c1` [Compound 45], the pIC50 [4] was 6.99, the pIC50 ([2]; in vitro) was 7.04 and the “Induced CD (no exciton)” value [3] was “++”.
In the case of `COc1ccc(-c2nc3ccc(-c4nc5ccc(C(=N)N)cc5[nH]4)cc3[nH]2)cc1` [Compound 46], the “In Vivo T.b.r. cures” value ([1]; 5 mg/kg ip) was 0/4, the “In Vivo T.b.r. survival time” value ([1]; 5 mg/kg ip) was 14.75 days and the pIC50 [4] was 7.80. For the same compound, the pIC50 ([2]; in vitro) was 7.54 and the “Induced CD (no exciton)” value [3] was “++++”.
In the case of `N=C(N)c1ccc(-c2ccc(-c3nc4ccc(C(=N)N)cc4[nH]3)o2)cc1` [Compound 47], the “In Vivo T.b.r. cures” value ([1]; 20 mg/kg ip) was 1/4, the “In Vivo T.b.r. survival time” value ([1]; 20 mg/kg ip) was greater than 27.75 days and the pIC50 [4] was 6.91. The pIC50 ([2]; in vitro) was 7.02 and the “Induced CD (no exciton)” value [3] was “+++”.
For `c1cc(-c2ccc(-c3nc4ccc(C5=NCCN5)cc4[nH]3)o2)ccc1C1=NCCN1` [Compound 48], the “Induced CD (no exciton)” value [3] was “++++”.
In the case of `c1cc(-c2ccc(-c3ccc(C4=NCCN4)o3)o2)oc1C1=NCCN1` [Compound 49], the pIC50 [4] was 6.10, the pIC50 ([2]; in vitro) was 7.03 and the “exciton splitting” value [3] was “induced exciton splitting”. The “Induced CD (exciton)” value [3] was “++”.
In the case of `c1ccc2[nH]c(-c3ccc(-c4ccc(C5=NCCN5)cc4)o3)nc2c1` [Compound 50], the “Induced CD (no exciton)” value [3] was “+++”.
With `N=C(N)c1ccc(-c2ccc(-c3ccc(C(=N)N)o3)cc2)cc1` [Compound 51] the pIC50 [4] was 8.30, the pIC50 ([2]; in vitro) was 9.00 and the “exciton splitting” value [3] was “induced exciton splitting”. The “Induced CD (exciton)” value [3] was “+”.
With `N=C(N)c1ccc2nc(-c3ccc(-c4ccc(C(=N)N)c(F)c4)o3)[nH]c2c1` [Compound 52] the “In Vivo T.b.r. cures” value ([1]; 20 mg/kg ip) was 2/4, the “In Vivo T.b.r. survival time” value ([1]; 20 mg/kg ip) was greater than 52 days and the pIC50 [4] was 7.28. The pIC50 ([2]; in vitro) was 7.51 and the “Induced CD (no exciton)” value [3] was “+++”.
For `CC1=CC(C(=N)N)=CN2C=C(c3ccc(-c4ccc(C(=N)N)cc4)o3)NC12` (centres unmarked) [Compound 53], the “In Vivo T.b.r. cures” value ([1]; 5 mg/kg ip) was 4/4, the “In Vivo T.b.r. survival time” value ([1]; 5 mg/kg ip) was greater than 60 days and the pIC50 [4] was 8.05. The pIC50 ([2]; in vitro) was 7.06 and the “Induced CD (no exciton)” value [3] was “+++”.
For `N=C(N)c1ccc(-c2ccc(-c3ccc(C(=N)N)cc3)o2)cc1` [furamidine, reference compound], the “In Vivo T.b.r. survival time” value ([1]; 5 mg/kg ip) was 46.5 days.

— patent US20100249175A1, “Dicationic compounds which selectively recognize G-quadruplex DNA” (priority 2005, published 2010)
